Laboratory results from patent publication US11919902B2, “Aryl-bipyridine amine derivatives as phosphatidylinositol phosphate kinase inhibitors” (HiberCell, Inc., priority 2017, dated 2024).

Legend:
[1] = biological target: T1, PIP4K2A (full length protein, SignalChem) (Homo sapiens, UniProt P48426); test: Kinase Assay PIP4K2 A (Sprint); ADP-Glo biochemical assay; conditions: Table 2; compounds listed under IC50 range headings
T1 construct: 4 nM PIP4K2A (full length protein, SignalChem); purchased SignalChem
T1 sequence (P48426 1-406): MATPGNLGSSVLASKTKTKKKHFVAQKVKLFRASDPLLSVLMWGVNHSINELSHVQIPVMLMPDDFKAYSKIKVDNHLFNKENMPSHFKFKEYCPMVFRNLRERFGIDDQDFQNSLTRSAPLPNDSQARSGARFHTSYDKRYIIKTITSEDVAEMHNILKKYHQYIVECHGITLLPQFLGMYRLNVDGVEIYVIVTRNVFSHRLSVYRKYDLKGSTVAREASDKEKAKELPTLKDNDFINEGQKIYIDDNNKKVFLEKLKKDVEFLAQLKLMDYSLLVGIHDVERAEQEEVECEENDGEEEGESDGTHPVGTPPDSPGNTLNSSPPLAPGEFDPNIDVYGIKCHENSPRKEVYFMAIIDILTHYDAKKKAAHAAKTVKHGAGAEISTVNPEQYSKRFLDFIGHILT
Method in brief: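 ADP-Glo luminescence detected ADP after a 1 h RT reaction started with 60 μM ATP solution. Before that, full-length PIP4K2A (4 nM in mix) with 100 μM PI(5)P diC8 was pre-incubated 15 min with compounds in MOPS buffer pH 7.2, 25 mM MgCl2, 0.005% Tween 20. IC50 derived from % inhibition relative to DMSO over 10 three-fold concentrations.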

GST tagged PIP4KtypeIIB = biological target: T2, GST tagged PIP4KtypeIIB (Homo sapiens, UniProt P78356); test: Trans-FI P kinase assay PIP4K2B (PIP4KtypeIIB inhibition assay); format: biochemical; conditions: Table 4; compounds listed under IC50 range headings; 100 uM GTP, 5 nM PIP4KIIB; read-out: Trans-FI P kinase assays: PIP4K2B IC50
T2 construct: made in house; host or cells: E. coli
T2 sequence (P78356 1-416): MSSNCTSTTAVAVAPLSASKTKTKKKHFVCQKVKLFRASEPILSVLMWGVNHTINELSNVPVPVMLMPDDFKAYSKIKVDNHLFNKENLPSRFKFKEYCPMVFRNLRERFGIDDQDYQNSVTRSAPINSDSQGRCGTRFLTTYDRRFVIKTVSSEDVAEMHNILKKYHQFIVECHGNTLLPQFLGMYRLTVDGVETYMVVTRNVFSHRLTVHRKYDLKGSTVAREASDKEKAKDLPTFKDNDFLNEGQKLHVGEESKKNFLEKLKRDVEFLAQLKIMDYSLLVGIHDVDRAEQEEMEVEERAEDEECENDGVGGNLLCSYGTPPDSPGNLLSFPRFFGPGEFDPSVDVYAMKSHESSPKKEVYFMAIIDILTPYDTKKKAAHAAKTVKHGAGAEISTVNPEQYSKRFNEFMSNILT
Method in brief: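 Transcreener FI fluorescence, converted to GDP by calibration, tracked product from 5 nM E. coli-expressed GST-PIP4KIIB acting on 80 uM PI5P (DOPE carrier) with 100 uM GTP. Compound (top 4.8 uM final, 5% DMSO) was preincubated 1 h at 27 C before the 2 h reaction; IC50 fitted from residual activity.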

Molecule `CC(C)n1ccnc1-c1ccc(-c2cncc(-c3ccnc4c3cc3n4CCN(C)C3=O)c2)cc1` [Example 364, 4-(5-(4-(1-isopropyl-1H-imidazol-2-yl)phenyl)pyridin-3-yl)-7-methyl-8,9-dihydropyrido[3′,2′:4,5]pyrrolo[1,2-a]pyrazin-6(7H)-one] has an IC50 [1] of less than 5000 nM and an IC50 (GST tagged PIP4KtypeIIB) of 1000 to 2500 nM.

Work on `CN1CCn2c(cc3c(-c4cncc(-c5ccc(-c6nncn6C6CCC6)cc5)c4)ccnc32)C1=O` [Example 365, 4-(5-(4-(4-cyclobutyl-4H-1,2,4-triazol-3-yl)phenyl)pyridin-3-yl)-7-methyl-8,9-dihydropyrido[3′,2′:4,5]pyrrolo[1,2-a]pyrazin-6(7H)-one] yielded an IC50 [1] of 1000 to 2500 nM and an IC50 (GST tagged PIP4KtypeIIB) of 10 to 100 nM.

`CNC(=O)c1cc2c(-c3cnc(N)c(-c4ccc(-c5nncn5CC(C)C)cc4)c3)ccnc2o1` [Example 366, 4-(6-amino-5-(4-(4-isobutyl-4H-1,2,4-triazol-3-yl)phenyl)pyridin-3-yl)-N-methylfuro[2,3-b]pyridine-2-carboxamide] gave an IC50 [1] of 5 to 100 nM and an IC50 (GST tagged PIP4KtypeIIB) of 10 to 100 nM.

`CC(C)Cn1cnnc1-c1ccc(-c2cncc(-c3ccnc4c3cc3n4CCN(c4ccccn4)C3=O)c2)cc1` [Example 367, 4-(5-(4-(4-isobutyl-4H-1,2,4-triazol-3-yl)phenyl)pyridin-3-yl)-7-(pyridin-2-yl)-8,9-dihydropyrido[3′,2′:4,5]pyrrolo[1,2-a]pyrazin-6(7H)-one] showed an IC50 [1] of 2500 to 5000 nM and an IC50 (GST tagged PIP4KtypeIIB) of 1 to 10 nM.

`CC(C)c1cnnn1-c1ccc(-c2cncc(-c3ccnc4c3cc3n4CCN(C)C3=O)c2)cc1` [Example 368, 4-(5-(4-(5-isopropyl-1H-1,2,3-triazol-1-yl)phenyl)pyridin-3-yl)-7-methyl-8,9-dihydropyrido[3′,2′:4,5]pyrrolo[1,2-a]pyrazin-6(7H)-one] gave an IC50 [1] of 5 to 100 nM and an IC50 (GST tagged PIP4KtypeIIB) of 1 to 10 nM.

Work on `CN1CCn2c(cc3c(-c4cncc(-c5ccc(-c6nncn6CCC6CC6)cc5)c4)ccnc32)C1=O` [Example 369] yielded an IC50 [1] of 100 to 1000 nM and an IC50 (GST tagged PIP4KtypeIIB) of 10 to 100 nM.

`Cc1ccnnc1-c1ccc(-c2cncc(-c3ccnc4c3cc3n4CCN(C)C3=O)c2)cc1` [Example 370, 7-methyl-4-(5-(4-(4-methylpyridazin-3-yl)phenyl)pyridin-3-yl)-8,9-dihydropyrido[3′,2′:4,5]pyrrolo[1,2-a]pyrazin-6(7H)-one] gave an IC50 [1] of 5 to 100 nM and an IC50 (GST tagged PIP4KtypeIIB) of 1 to 10 nM.

`CC(C)n1cnnc1-c1ccc(-c2cncc(-c3ccnc4[nH]c(C(=O)NCCc5ccncc5)cc34)c2)cc1` [Example 371, 4-(5-(4-(4-isopropyl-4H-1,2,4-triazol-3-yl)phenyl)pyridin-3-yl)-N-(2-(pyridin-4-yl)ethyl)-1H-pyrrolo[2,3-b]pyridine-2-carboxamide] gave an IC50 [1] of 100 to 1000 nM and an IC50 (GST tagged PIP4KtypeIIB) of 10 to 100 nM.

`CC(C)Cn1cnnc1-c1ccc(-c2cncc(-c3ccnc4[nH]c(C(=O)NCc5ccccc5)cc34)c2)cc1` [Example 372, N-benzyl-4-(5-(4-(4-isobutyl-4H-1,2,4-triazol-3-yl)phenyl)pyridin-3-yl)-1H-pyrrolo[2,3-b]pyridine-2-carboxamide] gave an IC50 [1] of 1000 to 2500 nM and an IC50 (GST tagged PIP4KtypeIIB) of 10 to 100 nM.

Molecule `CC(C)n1cnnc1-c1ccc(-c2cncc(-c3ccnc4[nH]c(C(=O)NCc5ccccc5)cc34)c2)cc1` [Example 373, N-benzyl-4-(5-(4-(4-isopropyl-4H-1,2,4-triazol-3-yl)phenyl)pyridin-3-yl)-1H-pyrrolo[2,3-b]pyridine-2-carboxamide] has an IC50 [1] of 100 to 1000 nM and an IC50 (GST tagged PIP4KtypeIIB) of 10 to 100 nM.

Molecule `CC(C)n1cnnc1-c1ccc(-c2cc(-c3ccnc4c3cc3n4CCN(CC4CC4)C3=O)cnc2N)cc1` [Example 374, 4-(6-amino-5-(4-(4-isopropyl-4H-1,2,4-triazol-3-yl)phenyl)pyridin-3-yl)-7-(cyclopropylmethyl)-8,9-dihydropyrido[3′,2′:4,5]pyrrolo[1,2-a]pyrazin-6(7H)-one] has an IC50 [1] of 100 to 1000 nM and an IC50 (GST tagged PIP4KtypeIIB) of 1 to 10 nM.

`CC(C)c1conc1-c1ccc(-c2cncc(-c3ccnc4c3cc3n4CCN(C)C3=O)c2)cc1` [Example 375, 4-(5-(4-(4-isopropylisoxazol-3-yl)phenyl)pyridin-3-yl)-7-methyl-8,9-dihydropyrido[3′,2′:4,5]pyrrolo[1,2-a]pyrazin-6(7H)-one] showed an IC50 [1] of 100 to 1000 nM and an IC50 (GST tagged PIP4KtypeIIB) of 10 to 100 nM.

`CN1CCn2c(cc3c(-c4cncc(-c5ccc(-c6nncn6CC6CC6)cc5)c4)ccnc32)C1=O` [Example 376, 4-(5-(4-(4-(cyclopropylmethyl)-4H-1,2,4-triazol-3-yl)phenyl)pyridin-3-yl)-7-methyl-8,9-dihydropyrido[3′,2′:4,5]pyrrolo[1,2-a]pyrazin-6(7H)-one] showed an IC50 [1] of 1000 to 2500 nM and an IC50 (GST tagged PIP4KtypeIIB) of 10 to 100 nM.

With `CN1CCn2c(cc3c(-c4cncc(-c5ccc(-c6nncn6C(C)(C)C)cc5)c4)ccnc32)C1=O` [Example 377, 4-(5-(4-(4-(tert-butyl)-4H-1,2,4-triazol-3-yl)phenyl)pyridin-3-yl)-7-methyl-8,9-dihydropyrido[3′,2′:4,5]pyrrolo[1,2-a]pyrazin-6(7H)-one] the IC50 [1] was 5 to 100 nM and the IC50 (GST tagged PIP4KtypeIIB) was 1 to 10 nM.

`CC(C)n1cnnc1-c1ccc(-c2cncc(-c3ccnc4[nH]c(C(=O)NCc5cccnc5)cc34)c2)cc1` [Example 378, 4-(5-(4-(4-isopropyl-4H-1,2,4-triazol-3-yl)phenyl)pyridin-3-yl)-N-(pyridin-3-ylmethyl)-1H-pyrrolo[2,3-b]pyridine-2-carboxamide] gave an IC50 [1] of 100 to 1000 nM and an IC50 (GST tagged PIP4KtypeIIB) of 10 to 100 nM.

For `O=C(NCc1cccc2c1B(O)OC2)c1cc2c(-c3cncc(-c4ccc(N5CCCC5=O)cc4)c3)ccnc2[nH]1` [Example 379, N-((1-hydroxy-1,3-dihydrobenzo[c][1,2]oxaborol-7-yl)methyl)-4-(5-(4-(2-oxopyrrolidin-1-yl)phenyl)pyridin-3-yl)-1H-pyrrolo[2,3-b]pyridine-2-carboxamide], the IC50 [1] was 5 to 100 nM and the IC50 (GST tagged PIP4KtypeIIB) was 10 to 100 nM.

With `CC(C)c1cncc(-c2ccc(-c3cncc(-c4ccnc5c4cc4n5CCN(C)C4=O)c3)cc2)c1` [Example 380, 4-(5-(4-(5-isopropylpyridin-3-yl)phenyl)pyridin-3-yl)-7-methyl-8,9-dihydropyrido[3′,2′:4,5]pyrrolo[1,2-a]pyrazin-6(7H)-one] the IC50 [1] was 1000 to 2500 nM and the IC50 (GST tagged PIP4KtypeIIB) was 2500 to 5000 nM.

`CN1CCn2c(cc3c(-c4cncc(-c5ccc(C(=O)N6CC(C)(C)C6)cc5)c4)ccnc32)C1=O` [Example 381, 4-(5-(4-(3,3-dimethylazetidine-1-carbonyl)phenyl)pyridin-3-yl)-7-methyl-8,9-dihydropyrido[3′,2′:4,5]pyrrolo[1,2-a]pyrazin-6(7H)-one] gave an IC50 [1] of 100 to 1000 nM and an IC50 (GST tagged PIP4KtypeIIB) of 100 to 1000 nM.

Work on `CN1CCn2c(cc3c(-c4cncc(-c5ccc(C(=O)N6C7CCC6CC7)cc5)c4)ccnc32)C1=O` [Example 382, 4-(5-(4-(7-azabicyclo[2.2.1]heptane-7-carbonyl)phenyl)pyridin-3-yl)-7-methyl-8,9-dihydropyrido[3′,2′:4,5]pyrrolo[1,2-a]pyrazin-6(7H)-one] yielded an IC50 [1] of 100 to 1000 nM and an IC50 (GST tagged PIP4KtypeIIB) of 100 to 1000 nM.

For `CC(C)Cn1cnnc1-c1ccc(-c2cncc(-c3ccnc4c3cc3n4CCN(C)C3=O)c2)cc1` [Example 383, 4-(5-(4-(4-isobutyl-4H-1,2,4-triazol-3-yl)phenyl)pyridin-3-yl)-7-methyl-8,9-dihydropyrido[3′,2′:4,5]pyrrolo[1,2-a]pyrazin-6(7H)-one], the IC50 [1] was 100 to 1000 nM and the IC50 (GST tagged PIP4KtypeIIB) was 10 to 100 nM.

Molecule `CC(C)n1cnnc1-c1ccc(-c2cncc(-c3ccnc4c3cc3n4CCN(Cc4ccncc4)C3=O)c2)cc1` [Example 385, 4-(5-(4-(4-isopropyl-4H-1,2,4-triazol-3-yl)phenyl)pyridin-3-yl)-7-(pyridin-4-ylmethyl)-8,9-dihydropyrido[3′,2′:4,5]pyrrolo[1,2-a]pyrazin-6(7H)-one] has an IC50 [1] of 100 to 1000 nM and an IC50 (GST tagged PIP4KtypeIIB) of 1 to 10 nM.

For `CN1CCn2c(cc3c(-c4cncc(-c5ccc(N6CCCS6(=O)=O)cc5)c4)ccnc32)C1=O` [Example 386, 4-(5-(4-(1,1-dioxidoisothiazolidin-2-yl)phenyl)pyridin-3-yl)-7-methyl-8,9-dihydropyrido[3′,2′:4,5]pyrrolo[1,2-a]pyrazin-6(7H)-one], the IC50 [1] was 100 to 1000 nM and the IC50 (GST tagged PIP4KtypeIIB) was 100 to 1000 nM.
